Assay results published in US9826734B2, “Etherified lactate esters, method for the production thereof and use thereof for enhancing the effect of plant protecting agents” (Clariant International Ltd., priority 2011, dated 2017).

Legend:
Format in all cases: physicochemical
[1] = Static surface tension in aqueous systems, Pending Drop Method (DSA10 Goniometer); conditions: room temperature (20° C.)
[2] = Dynamic surface tension, bubble pressure method (BP2100 tensiometer); conditions: surface age 200 milliseconds
Protocol: The dynamic surface tension was determined via the bubble pressure method (BP2100, tensiometer, Krüss). With a time span relevant for the spray application of agrochemicals in aqueous dilution (referred to as the surface age in the bubble pressure method) of 200 milliseconds, the value of the dynamic surface tension in [mN/m] correlates with the adherence on difficult-to-wet plants such as barley (cereal). A value of 50 mN/m (at 20-21° C.) produces, relative to water (72.8 mN/m), an improvement in the adherence from “zero adherence” to about 50% (Baur P, Pontzen R 2007. Basic features of plant surface wettability and deposit formation and the impact of adjuvants. In: R E Gaskin ed. Proceeding of the 8th International Symposium on Adjuvants for Agrochemicals. Publisher: International Society for Agrochemical Adjuvants (ISAA), Columbus, Ohio, USA). […] The etherified lactate esters are therefore outstandingly suitable for promoting the accommodation of agrochemicals by cereals (with maize, rice, millet), banana, cabbage/oil seed rape, soybean, and other difficult-to-wet crop plants and weed plants. The positive wetting and sticking effects also apply, of course, for other organisms and artificial surfaces and/or technical applications, for the purpose, for instance, of achieving thin coatings on, or cleaning, surfaces.

[3] = Foam behavior, foam test of CIPAC Method MT47; conditions: 3 g/l, CIPAC D water (342 ppm)
Source text: The important properties of interface-active substances include the foam behavior, particularly in aqueous systems. Virtually all surfactants foam, and the time to collapse of the foam has to be shortened in the case of critical (highly foaming) surfactants through addition of defoamers to formulation or to aqueous use preparation. The foam behavior of certain of the substances of the invention was characterized, using aqueous solutions at a concentration of 3 g/l, by the foam test of CIPAC Method MT47.

Row | Substance | Static surface tension ([1]; 0.3 g/l in water) [mN/m] | Static surface tension ([1]; 3 g/l in water) [mN/m] | Dynamic surface tension ([2]; 0.3 g/l in water) [mN/m] | Dynamic surface tension ([2]; 3 g/l in water) [mN/m] | Percentage foam volume ([3]; 10 s) [%] | Percentage foam volume ([3]; 60 s) [%] | Percentage foam volume ([3]; 3 min) [%] | Percentage foam volume ([3]; 12 min) [%]
1 | Lauryl lactate 8EO/5PO | 31.38 | 31.51 | 50.9 | 36.2 | – | – | – | –
2 | Lauryl lactate 5EO/5PO | 31.65 | 30.14 | 52.7 | 36.5 | – | – | – | –
3 | Lauryl lactate 8EO/2PO | 30.76 | 30.71 | 54.3 | 37.7 | – | – | – | –
4 | 2-ethylhexyl lactate 2PO/2EO | 40.40 | 29.47 | 47.8 | 30.7 | 2 | 2 | 0 | 0
5 | 2-ethylhexyl lactate 2EO | 45.34 | 28.19 | 50.9 | 26.8 | 5 | 5 | 5 | 5
6 | Lauryl lactate 5EO/2PO | 31.63 | 31.34 | 51.9 | 37.4 | – | – | – | –
7 | 2-ethylhexyl lactate 10EO | 52.99 | 35.18 | 56.6 | 46.6 | 10 | 5 | 5 | 0
8 | 2-ethylhexyl lactate 2PO/10EO | 47.43 | 36.0 | 54.2 | 37.4 | 50 | 10 | 0 | 0
9 | 2-ethylhexyl lactate 15EO | 54.33 | 42.23 | 58.6 | 48.1 | 0 | 0 | 0 | 0
10 | 2-ethylhexyl lactate 2PO/5EO | 43.35 | 28.48 | 50.7 | 29.6 | 25 | 10 | 10 | 10
11 | 2-ethylhexyl lactate 5EO | 48.65 | 32.61 | 54.4 | 35.3 | 50 | 40 | 20 | 10
